# How the values were obtained:
# kidney T cells [1] = experiment: T cells from post-ischemic kidneys, spectral flow cytometry; format: in vivo, mouse
# Experimental: Mice were treated with 1.83 mg/kg of JHU083 or vehicle every other day via intraperitoneal injection and underwent bilateral IRI surgery on day 7 after the initial injection. […] Hollinger et al., 2020. Mice were followed up until 72 h after IRI, and T cells isolated from post-ischemic kidneys were studied (FIG. 14A).
# KMNCs were isolated according to our previously described Percoll density gradient protocol. Ascon et al., 2006. Briefly, decapsulated kidneys were immersed and incubated in collagenase D (2 mg/mL; Sigma-Aldrich) solution for 30 min at 37° C. Samples were strained through 70 µm cell strainer (BD Bioscience, Franklin Lakes, NJ), washed, and resuspended in 40% Percoll (GE Healthcare, Chicago, IL) followed by gentle overlaying onto 80% Percoll. After centrifugation at 1,500 g for 30 min in brake off mode at room temperature, KMNCs were collected from interface between 40% and 80% Percoll. Spleens were strained through 40 µm cell strainer (BD Bioscience) and incubated with ammonium-chloride-potassium lysis buffer (Quality Biological, Gaithersburg, MD) for 3 min. Collected cells were washed and resuspended with Roswell Park Memorial Institute (RPMI) 1640 media (Thermo Fisher Scientific, Waltham, MA) containing 5% fetal bovine serum (FBS, Thermo Fisher Scientific). Cells were counted on hemocytometer using trypan blue exclusion under a microscope.
# Cells were washed once with phosphate buffered saline (PBS) and stained with viability dye Zombie NIR Fixable Viability (BioLegend, San Diego, CA) for 15 min at room temperature. After washing with Cell Staining Buffer (BioLegend), cells were preincubated with anti-CD16/CD32 Fc receptor blocking antibody (S17011E, BioLegend) for 15 min to prevent nonspecific antibody binding. Subsequently, surface staining was performed in 50 μL of BD horizon™ Brilliant Stain buffer and surface staining antibody cocktail for 30 min at 4° C.: Pacific blue anti-CD44 (IM7, BioLegend), BV510 anti-CD8 (53-6.7, BioLegend), BV570 anti-CD45 (30-F11, BioLegend), BV605 anti-CD69 (H1.2F3, BioLegend), BV650 anti-NK1.1 (PK136, BioLegend), BV711 anti-PD1 (29F.1A12, BioLegend), BV785 anti-TCRβ (H57-597, BioLegend), PE-Cy5.5 anti-CD25 (PC61.5, Thermo Fisher Scientific), APC-R700 anti-CD62L (MEL-14, BD Bioscience), and APC-Fire810 anti-CD4 (GK1.5, BioLegend). Cells were fixed and permeabilized with Foxp3/Transcription Factor Staining kit (Thermo Fisher Scientific) for 30 min at room temperature and washed with permeabilization/wash buffer (Thermo Fisher Scientific). Intracellular staining was conducted in 50 μL of permeabilization/wash buffer with intracellular staining antibody cocktail for 45 min at room temperature: BV421 anti-Ki67 (16A8, BioLegend), Alexa Fluor 488 anti-CPT1a (8F6AE9, Abcam, Cambridge, UK), Alexa Fluor 532 anti-VDAC1 (20B12AF2, Abcam), PerCP-efluor 710 anti-FoxP3 (FJK-16S, Thermo Fisher Scientific), PE anti-GLUT1 (EPR3915, Abcam), Alexa Fluor 594 anti-pS6 (D68F8, Cell Signaling, Danvers, MA), PE-Cy5 anti-HKII (EPR20839, Abcam), PE-Cy7 anti-H3K27me3 (C36B11, Cell Signaling), and Alexa Fluor 647 anti-Tomm20 (EPR15581-54, Abcam). After staining, cells were washed with permeabilization/wash buffer then resuspended in Cell Staining Buffer. Samples were analyzed by 4-laser Aurora spectral flow cytometer (Cytek, Fremont, CA).
# Glutamine antagonist, JHU083 was synthesized as previously described, Rais et al., 2016, and dissolved in 50 mM […] 4-(2-hydroxyethyl)-1-piperazineethanesulfonic acid (HEPES) buffered 0.9% saline. Aliquot stocks were stored at −80° C. and thawed right before injection. Before the IRI surgery or cisplatin injection, mice were administered 1.83 mg/kg JHU083 (equivalent to 1 mg/kg DON) or vehicle (50 mM HEPES buffered 0.9% saline) every other day via intraperitoneal injection. Following 4 consecutive dosages, mice underwent IRI surgery or cisplatin injection. The last additional dose was given at 24 h after IRI or cisplatin injection. […]
# kidney T cells [2] = experiment: T cell phenotypes in normal steady-state kidneys; format: in vivo, mouse; details: normal mice, same dosage schedule; vs vehicle
# Experimental: To test whether this immunologic effect was derived from the glutamine blockade or attenuated kidney injury, we studied normal mice treated with JHU083 or vehicle with the same dosage schedule. […] Therefore, changes seen in these markers in post-ischemic kidneys are likely through JHU083-mediated glutamine blockade.
# KMNCs were isolated according to our previously described Percoll density gradient protocol. Ascon et al., 2006. Briefly, decapsulated kidneys were immersed and incubated in collagenase D (2 mg/mL; Sigma-Aldrich) solution for 30 min at 37° C. Samples were strained through 70 µm cell strainer (BD Bioscience, Franklin Lakes, NJ), washed, and resuspended in 40% Percoll (GE Healthcare, Chicago, IL) followed by gentle overlaying onto 80% Percoll. After centrifugation at 1,500 g for 30 min in brake off mode at room temperature, KMNCs were collected from interface between 40% and 80% Percoll. […] Cells were counted on hemocytometer using trypan blue exclusion under a microscope.
# Cells were washed once with phosphate buffered saline (PBS) and stained with viability dye Zombie NIR Fixable Viability (BioLegend, San Diego, CA) for 15 min at room temperature. […] Samples were analyzed by 4-laser Aurora spectral flow cytometer (Cytek, Fremont, CA). […]
# [3] = mouse, in vivo, ip, 1.83 mg/kg
# Experimental: Glutamine antagonist, JHU083 was synthesized as previously described, Rais et al., 2016, and dissolved in 50 mM […] 4-(2-hydroxyethyl)-1-piperazineethanesulfonic acid (HEPES) buffered 0.9% saline. Aliquot stocks were stored at −80° C. and thawed right before injection. Before the IRI surgery or cisplatin injection, mice were administered 1.83 mg/kg JHU083 (equivalent to 1 mg/kg DON) or vehicle (50 mM HEPES buffered 0.9% saline) every other day via intraperitoneal injection. Following 4 consecutive dosages, mice underwent IRI surgery or cisplatin injection. The last additional dose was given at 24 h after IRI or cisplatin injection. This dosage regimen was chosen based on efficiency and toxicity data from a previous study. Hollinger et al., 2020.
# [4] = post-ischemic kidneys, vs vehicle
smiles,measurement,setting,value
CCOC(=O)[C@H](CCC(=O)C=[N+]=[N-])NC(=O)[C@@H](N)CC(C)C [JHU083],"expression of CD69, CD44, and Ki67 on kidney CD4+ and CD8+ T cells","kidney T cells [1]; Example 1, FIG. 8, after ischemic AKI, vs vehicle control group",reduced expression
same,CD69+ among kidney CD8+ T cells,"kidney T cells [1]; post-ischemic kidneys, vehicle 24.9±2.3, P=0.019",17.8±1.4%
same,CD62L+ among kidney CD4+ T cells,"kidney T cells [1]; post-ischemic kidneys, vehicle 29.0±1.6, P<0.001",42.8±2.2
same,CD62L+ among kidney CD8+ T cells,"kidney T cells [1]; post-ischemic kidneys, vehicle 44.9±3.2, P<0.001",63.6±2.8
same,Ki67+ among kidney CD4+ T cells,"kidney T cells [1]; post-ischemic kidneys, vehicle 58.7±2.9, P=0.035",50.6±2.1%
same,CD69+ among kidney DN T cells,"kidney T cells [1]; post-ischemic kidneys, vehicle 60.6±2.5, P=0.005",72.1±2.5%
same,Ki67+ among kidney CD8+ T cells,"kidney T cells [1]; post-ischemic kidneys, vehicle 61.2±4.2, P=0.043",48.4±4.1%
same,CD44+ among kidney CD8+ T cells,"kidney T cells [1]; post-ischemic kidneys, vehicle 61.4±10.7, P=0.001",40.9±11.2%
same,CD44+ among kidney CD4+ T cells,"kidney T cells [1]; post-ischemic kidneys, vehicle 67.5±1.7, P<0.001",56.3±1.9%
same,Ki67+ among kidney DN T cells,"kidney T cells [1]; post-ischemic kidneys, vehicle 78.7±3.0, P=0.001",91.2±1.1%
same,CD44+ among kidney DN T cells,"kidney T cells [1]; post-ischemic kidneys, vehicle 94.4±2.4, P=0.038",96.4±1.2%
same,levels of the other metabolic enzymes in kidney T cells,kidney T cells [1]; [4],comparable between groups
same,"proportions of CD4+, CD8+, DN T cells among total T cells and Tregs among CD4+ T cells",kidney T cells [1]; [4],comparable between groups
same,pS6 and HKII expression in kidney T cells,"kidney T cells [1]; post-ischemic kidneys, vs vehicle-treated mice",enhanced
same,number of total T cells in post-ischemic kidneys,kidney T cells [1]; vs vehicle,reduced
same,phenotype of CD4+ and CD8+ T cells in steady-state kidneys,kidney T cells [2],"skewed toward naïve phenotypes with lower CD69, CD44, and Ki67 and higher CD62L"
same,body weight,[3],no significant differences between groups

# Reference: patent US20240408114A1, “METHODS FOR PREVENTING AND TREATING ACUTE KIDNEY INJURY” (The Johns Hopkins University, priority 2021, published 2024)
